Source: the NIST ThermoML archive (doi:10.1016/j.fluid.2006.03.020)

Assay: excess molar enthalpy (molar enthalpy of mixing); xn = mol fraction of the nth substance listed
Settings: 303.15 K, 101 kPa, Liquid, Flow calorimetry

C1COCCO1 [1,4-dioxane] + C1CCCCC1
Settings	excess molar enthalpy [kcal/mol]
x1 = 0.0547	0.0884
x1 = 0.153	0.211
x1 = 0.2558	0.302
x1 = 0.3916	0.3674
x1 = 0.5072	0.38
x1 = 0.6511	0.346
x1 = 0.7029	0.315
x1 = 0.7606	0.269
x1 = 0.8499	0.189
x1 = 0.9288	0.097

C1COCCO1 [1,4-dioxane] + CCCCCCCC
Settings	excess molar enthalpy [kcal/mol]
x1 = 0.0577	0.0985
x1 = 0.1002	0.161
x1 = 0.151	0.228
x1 = 0.2075	0.291
x1 = 0.2491	0.334
x1 = 0.3048	0.376
x1 = 0.3676	0.4156
x1 = 0.4092	0.4316
x1 = 0.4536	0.4479
x1 = 0.507	0.4522
x1 = 0.5583	0.4529
x1 = 0.6089	0.4381
x1 = 0.6599	0.4195
x1 = 0.6959	0.4001
x1 = 0.7553	0.3599
x1 = 0.8045	0.314
x1 = 0.8586	0.248
x1 = 0.8997	0.192
x1 = 0.9352	0.131

CCCCCCCC [octane] + C1CCCCC1
Settings	excess molar enthalpy [kcal/mol]
x1 = 0.0275	0.0124
x1 = 0.0507	0.0191
x1 = 0.0896	0.0301
x1 = 0.1482	0.0413
x1 = 0.1912	0.0492
x1 = 0.2487	0.055
x1 = 0.2922	0.0588
x1 = 0.3709	0.0619
x1 = 0.4676	0.0617
x1 = 0.5738	0.0574
x1 = 0.642	0.0516
x1 = 0.7256	0.043
x1 = 0.79	0.0356
x1 = 0.8267	0.0296
x1 = 0.869	0.0237
x1 = 0.8976	0.0179
